Reference: US8299277B2, “Radiation protection drug containing tocopherol or tocotrienol compound ester derivative as active ingredient” (priority 2006, dated 2012)

Tested on: male C3H mice irradiated with X-rays
Experiment: 30-day survival of mice after X-ray irradiation (radiation protection)
Assay type: in vivo
Experimental: Seven to thirteen male C3H mice aged 10 weeks (body weight: 25-28 g) per group were irradiated with X-rays (7.5-8.5 Gy) and their survival rate was determined 30 days after the irradiation. To each of drug-treated groups was intraperitoneally or subcutaneously administered 0.5% methylcellulose solution (0.3 ml) containing d-γ-tocopherol-N,N-dimethylglycine ester hydrochloride in an amount of 10-300 mg/Kg, before or after the irradiation. To a control group was intraperitoneally administered 0.5% methylcellulose solution in a volume of 0.3 ml per mouse.
Eight to eleven male C3H mice aged 10 weeks (body weight: 25-28 g) per group were irradiated with X-rays (7.5 Gy) and their survival rate was measured 30 days after the irradiation. To drug-treated groups was intraperitoneally administered 0.5% methylcellulose solution (0.3 ml) containing d-α-tocopherol-N,N-dimethylglycine ester hydrochloride, d-γ- or d-α-tocotrienol-N,N-dimethylglycine ester hydrochloride, d-γ- or dl-α-tocopherol phosphate disodium salt, or d-γ-tocopherol-N-methyl-L-proline ester hydrochloride, respectively, in an amount of 100 mg/Kg, immediately after the irradiation. To a control group was intraperitoneally administered 0.5% methylcellulose solution in a volume of 0.3 ml per mouse.

[1] = 100 mg/kg i.p., 7.5 Gy X-rays, administered immediately after irradiation, C3H mice (Table 2)

## Cc1c(OC(=O)[C@@H]2CCCN2C)cc2c(c1C)OC(C)(CCCC(C)CCCC(C)CCCC(C)C)CC2.Cl (stereo partly drawn) [d-γ-tocopherol-L-N-methylproline ester hydrochloride]
[1]
  Survival rate after 30 days (%): 90%

## Cc1c(C)c2c(c(C)c1OC(=O)CN(C)C)CCC(C)(CCCC(C)CCCC(C)CCCC(C)C)O2.Cl (stereo not drawn) [d-α-tocopherol-N,N-dimethylglycine ester hydrochloride]
[1]
  Survival rate after 30 days (%): 95%

## Cc1c(OC(=O)CN(C)C)cc2c(c1C)OC(C)(CCCC(C)CCCC(C)CCCC(C)C)CC2.Cl (stereo not drawn) [d-γ-tocopherol-N,N-dimethylglycine ester hydrochloride]
10 mg/kg i.p., 7.5 Gy X-rays, administered immediately after irradiation, C3H mice
  Survival rate after 30 days (%): 10%
20 mg/kg i.p., 7.5 Gy X-rays, administered immediately after irradiation, C3H mice
  Survival rate after 30 days (%): 60%
50 mg/kg i.p., 7.5 Gy X-rays, administered immediately after irradiation, C3H mice
  Survival rate after 30 days (%): 85%
100 mg/kg S.C. administration, 7.5 Gy X-rays, administered immediately after irradiation, C3H mice
  Survival rate after 30 days (%): 85%
100 mg/kg i.p., 7.5 Gy X-rays, administered 30 min. before irradiation, C3H mice
  Survival rate after 30 days (%): 60%
100 mg/kg i.p., 7.5 Gy X-rays, administered 1 hr. after irradiation, C3H mice
  Survival rate after 30 days (%): 88%
100 mg/kg i.p., 7.5 Gy X-rays, administered 10 hrs. after irradiation, C3H mice
  Survival rate after 30 days (%): 75%
100 mg/kg i.p., 7.5 Gy X-rays, administered 24 hrs. after irradiation, C3H mice
  Survival rate after 30 days (%): 40%
100 mg/kg i.p., 7.5 Gy X-rays, administered immediately after irradiation, C3H mice (Table 1)
  Survival rate after 30 days (%): 98%
100 mg/kg i.p., 7.5 Gy X-rays, administered immediately before irradiation, C3H mice
  Survival rate after 30 days (%): 80%
100 mg/kg i.p., 8 Gy X-rays, administered immediately after irradiation, C3H mice
  Survival rate after 30 days (%): 78%
100 mg/kg i.p., 8.5 Gy X-rays, administered immediately after irradiation, C3H mice
  Survival rate after 30 days (%): 37%
300 mg/kg i.p., 7.5 Gy X-rays, administered immediately after irradiation, C3H mice
  Survival rate after 30 days (%): 55%

## CC(C)=CCCC(C)=CCCC(C)=CCCC1(C)CCc2cc(OC(=O)CN(C)C)c(C)c(C)c2O1.Cl (stereo not drawn) [d-γ-Tocotrienol-N,N-dimethylglycine ester hydrochloride]
[1]
  Survival rate after 30 days (%): 85%

## Cc1c(OP(=O)([O-])[O-])cc2c(c1C)OC(C)(CCCC(C)CCCC(C)CCCC(C)C)CC2.[Na+].[Na+] (stereo not drawn) [d-γ-Tocopherol phosphate disodium salt]
[1]
  Survival rate after 30 days (%): 70%

## Cc1c(C)c2c(c(C)c1OP(=O)([O-])[O-])CCC(C)(CCCC(C)CCCC(C)CCCC(C)C)O2.[Na+].[Na+] (racemic) [dl-α-Tocopherol phosphate disodium salt]
[1]
  Survival rate after 30 days (%): 40%

## CC(C)=CCCC(C)=CCCC(C)=CCCC1(C)CCc2c(C)c(OC(=O)CN(C)C)c(C)c(C)c2O1.Cl (stereo not drawn) [d-α-Tocotrienol-N,N-dimethylglycine ester hydrochloride]
[1]
  Survival rate after 30 days (%): 91%
